The values that follow are results of earlier work, collected in patent publication US10993934B2, “Topical compositions of dutasteride” (SHILPA MEDICARE LIMITED, priority 2017, dated 2021).

For data set [1] the following is noted: orally administered.

For the molecule `C[C@]12C=CC(=O)N[C@@H]1CC[C@@H]1[C@@H]2CC[C@]2(C)[C@@H](C(=O)Nc3cc(C(F)(F)F)ccc3C(F)(F)F)CC[C@@H]12` [Dutasteride, (5α,17β)-N-{2,5-bis(trifluoromethyl)phenyl}-3-oxo-4-azaandrost-1-ene-17-carboxamide], the Solubility in ethanol entry (ethanol) is reported as “soluble”. Besides, the Solubility in methanol result (methanol) was “soluble”. The “Solubility in polyethylene glycol 400” value (polyethylene glycol 400) is “soluble”. Moreover, the Solubility in water entry (water) is “insoluble”. The Absolute bioavailability entry in data set [1] is listed as “about 60%”. For the same molecule, the “Absolute bioavailability (range)” value in data set [1] (range in brackets) is recorded as 40%-94%.
